Assays:
ATP11B and ATP7B = assay: Western blot of efflux proteins; assay type: cell-based, human; settings: TR127 and TR182 cells treated with RAMBO and/or CP
TR127 cells = assay: Virus spread: GFP+ RAMBO infected cells by flow cytometry; assay type: cell-based, human; settings: TR127, RAMBO MOI=0.1 1 hr then CP 2 μM 16 hr; presence vs absence of CP
Protocol: FIGS. 1A-1J: RAMBO increases cisplatin accumulation in cisplatin-resistant ovarian cancer cells. (FIG. 1A) Representative histogram (left) and quantification (right) of percentage of GFP^+ infected cisplatin resistant ovarian cancer cells. TR127 cells infected with RAMBO (MOI=0.1) for 1 hr and then treated with CP (2 μM) for 16 hr. Data shown are mean percentage of GFP^+ RAMBO infected TR127 cells (±s.d) analyzed by flow cytometry (n=3/group). (FIG. 1B) Quantification of intracellular CP retained inside platin resistant OC cells treated with/without RAMBO. OVCAR8, TR127 and TR182 were treated with/without RAMBO (MOI=0.1) for one hour and then incubated with 2.5 μM Texas-red labeled CP. Twenty-four hours post-infection CP accumulation in cells was analyzed by flow cytometry. Data shown are mean fluorescence intensity (MFI) of Texas-red labeled CP (±s.d., n=3/group). […] Briefly, RNA harvested from OVTOKO cells treated with RAMBO (MOI=1) for 16 hr was analyzed by RNAseq. […] (FIG. 1I) Quantification of Texas-red labeled CP accumulation in TR127 cells knocked down for either ATP7B, ATP11B, or both was analyzed by flow cytometry (n=3/group). (FIG. 1J) Quantification of Texas-red labeled CP accumulation in OVTOKO cells overexpressing (OE) both ATP11B and ATP7B, or control (Ctl). Cells were analyzed by flow cytometry. […]

With `N.N.[Cl][Pt][Cl]` [CP, cisplatin] the “protein expression of ATP11B and ATP7B” value (ATP11B and ATP7B) was “no effect” and the “GFP expression (GFP positive tumor cells as indicator of infection)” value (TR127 cells) was “no difference”.

Reference: patent US20210100859A1, “HERPES SIMPLEX VIRUS (HSV) ANTICANCER THERAPIES” (priority 2019, published 2021)
